The record followed here is patent US10398663B2, “Mitochondrial delivery of 3-bromopyruvate” (priority 2014, dated 2019).

In general, IC50 refers to the point on the concentration scale where inhibition reaches its midpoint.

Holding throughout (type): cell-based, Human
For test [1], the system named is PC3 cells. Description: Apoptosis detection by flow cytometry (Annexin V-PI). To be noted: 6 h, dark. As for the experimental part: PC3 cells were plated at a density of 1×10^6 cells/mL and allowed to grow for 14 h. Media was changed and cells were treated with T-AuNP (1 mg/mL), NT-AuNP (1 mg/mL), T-3-BP-AuNP (14.1 μg/mL with respect to NP, 10 μM with respect to 3-BP), NT-3-BP-AuNP (13.7 μg/mL with respect to NP, 10 μM with respect to 3-BP), free 3-BP (10 μM or 1 mM) for 6 h at 37° C. As positive controls, etoposide (100 μM, incubation time: 12 h) for apoptosis and H2O2 (1 mM, incubation time: 45 min) for necrosis were used. For apoptosis detection after laser treatment, cells were treated with T-AuNP (1 mg/mL), NT-AuNP (1 mg/mL), T-3-BP-AuNP (14.1 μg/mL with respect to NP, 10 μM with respect to 3-BP), NT-3-BP-AuNP (13.7 μg/mL with respect to NP, 10 μM with respect to 3-BP), free 3-BP (10 μM) for 4 h at 37° C., irradiated with laser of 660 nm for 1 min, and further incubated for 12 h. […] Cells were counted and resuspended in 1× annexinbinding buffer at a density of ˜1×10^6 cells/mL preparing a sufficient volume to have 100 μL per assay. To 100 μL of cell suspension, 5 μL Alexa Fluor® 488 annexin V and 1 μL 100 μg/mL PI working solution were added, incubated for 15 min at room temperature, followed by addition of 400 μL 1× annexin-binding buffer, gently mixing in ice, and the samples were analyzed on the flow cytometer immediately.
For orientation: A flow cytometer gives signals particle by particle.

For test [2], the system named is PC3 cells. Description: CellTiter-Glo luminescent ATP quantification. The following applies: 10 μM with respect to 3-BP, 6 h. As for the experimental part:
PC3 cells were seeded at a density of 1×10^6 cells/mL in a 12 well plate and allowed to grow for 12 h at 37° C. under 5% CO2. Cells were treated with T-AuNP (1 mg/mL), NT-AuNP (1 mg/mL), T-3-BP-AuNP (14.1 μg/mL with respect to NP, 10 μM with respect to 3-BP), NT-3-BP-AuNP (13.7 μg/mL with respect to NP, 10 μM with respect to 3-BP), free 3-BP (10 μM) for 6 h at 37° C. in 5% CO2 atmosphere. Control wells containing medium without cells were used to obtain background luminescence value. Plates were then equilibrated at room temperature for ˜30 min. A volume of CellTiter-Glo reagent equal to the volume of cell culture medium present in each well was added, this mixtures were mixed for 2 min in a shaker to induce cell lysis. The plates were incubated at room temperature for additional 10 min to stabilize luminescent signal. Luminescence was recorded using a plate reader. ATP quantification was carried out from a standard curve using ATP disodium salt hydrate.
(In general: In ATP-based viability assays light output follows the ATP content of the culture.)

Test [3] has as its system PC3 cells. Nature of the test: Lactate determination. The following applies: 10 μM with respect to 3-BP, 6 h. As for the experimental part: PC3 cells were seeded at a density of 1×10^6 cells/mL and allowed to grow for 12 h at 37° C. under 5% CO2. Cells were treated with T-AuNP (1 mg/mL), NT-AuNP (1 mg/mL), T-3-BP-AuNP (14.1 μg/mL with respect to NP, 10 μM with respect to 3-BP), NT-3-BP-AuNP (13.7 μg/mL with respect to NP, 10 μM with respect to 3-BP), free 3-BP (10 μM) for 6 h at 37° C. After 6 h, the media was removed and the cells were homogenized. The lysate and the media supernatant were added to the enzyme and substrate working reagent mixture and incubated for 30 min. Lactate concentration was measured using Bio-Tek Synergy HT microplate reader at 450 nm and comparing to a standard curve.

Test [4] deals with PC3 cells. Description: Bioenergetic assay (Seahorse XF24, ECAR and OCR). To be noted: 10 μM with respect to 3-BP, 6 h. The procedure:
Prior to the assay, XF sensor cartridges were hydrated. To each well of an XF utility plate, 1 mL of Seahorse Bioscience calibrant was added and the XF sensor cartridges were placed on top of the utility plate, and kept at 37° C. incubator without CO2 for a minimum of 12 h. PC3 cells were cultured in XF24-well cell culture microplates (Seahorse Bioscience) at a density of 5×10^4 cells/well (0.32 cm2) in 200 μL growth medium and then incubated for 24 h at 37° C. in 5% CO2 atmosphere. The three key parameters of glycolytic function: glycolysis, glycolytic capacity, and glycolytic reserve were assessed using a Seahorse XF glycolysis stress kit. After the cells were attached, an additional 100 μL growth medium was added and the cells were incubated for 24 h at 37° C. in 5% CO2 atmosphere. […] The OCR and the ECAR were measured simultaneously for 16 min to establish a baseline rate. Glycolysis, glycolytic capacity, and glycolytic reserve were calculated by subtracting the average rates before and after the addition of glucose (10 mM), ATP synthase inhibitor oligomycin (1.0 μM), and 2-deoxy-D-glucose (2-DG) (100 mM). These three compounds were injected consecutively with specific time gap and ECAR values were measured after each injection. […]

Test [5] has as its system DU145 cells. Nature of the test: MTT assay, DU145 cells. The following applies: with respect to 3-BP, 72 h. As for the experimental part: (§1) Human prostate cancer PC3, DU145 cells and RAW 264.7 macrophages were procured from the American type culture collection (ATCC). DU145 cells were grown at 37° C. in 5% CO2 in Eagle's minimum essential medium (EMEM) supplemented with 10% fetal bovine serum (FBS) and 1% penicillin/streptomycin. PC3 cells were grown in Roswell Park Memorial Institute (RPMI) 1640 medium supplemented with 10% FBS and 1% penicillin/streptomycin. RAW 264.7 macrophages were cultured in RPMI media supplemented with 10% FBS and 1% penicillin/streptomycin. Cells were passed every 3 to 4 days and restarted from frozen stocks upon reaching pass number 20.
(§2) Cytotoxicity profiles of T-AuNPs, NT-AuNPs, T-3-BPAuNPs, NT-3-BP-AuNPs, and 3-BP were studied using the MTT assay against prostate cancer PC3 and DU145 cell lines. Cells (2000 cells/well) were seeded on a 96-well plate in 100 μL of desired medium and incubated for 24 h. The cells were then treated with different constructs at varying concentrations and incubated for 12 h at 37° C. and the media was changed. […] The medium was removed, the cells were lysed with 100 μL of DMSO, and the absorbance of the purple formazan was recorded at 550 nm using a Bio-Tek Synergy HT microplate reader and background absorbance was measured at 800 nm. […] Cytotoxicity was expressed as mean percentage […] relative to the unexposed control±standard deviation (SD). […]
On the technique in general: Tetrazolium dyes change colour on reduction, which living cells bring about.

Test [6] has as its system PC3 cells. Description: MTT assay, PC3 cells. The following applies: with respect to 3-BP, 72 h. The procedure: as §1, §2

With `O=C(O)C(=O)CBr` [3-BP, 3-bromopyruvate], the apoptotic activity entry in test [1] (10 μM) was “unable to show any apoptotic activity”; in test [1] (1 mM), “significant apoptosis”. In addition, the “level of ATP” value in test [2] is given as “decrease”. For the same molecule, in test [3], the extracellular lactate level entry was “declined”. The intracellular lactate level entry in test [3] is listed as “declined”. Further, the “glycolysis inhibition (ECAR response to glucose)” value in test [4] is “did not show any glycolysis inhibitory effect”. In addition, the half-maximal inhibitory concentration (IC50) in test [5] turned out to be 541 ± 37 µM; in test [6], 271 ± 9 µM.
